Among the data in BindingDB's records for doi:10.1021/jm010399h (University of Tennessee Health Science Center, 2002) are IC50 values, retold here.

The assay deals with Integrase (Human immunodeficiency virus 1, UniProt Q7ZJM1). In words: Inhibitory activity against HIV-1 Integrase (HIV-1-IN).

pIC50: −log10 of the molar value.

Sequence of Integrase (Q7ZJM1 whole entry): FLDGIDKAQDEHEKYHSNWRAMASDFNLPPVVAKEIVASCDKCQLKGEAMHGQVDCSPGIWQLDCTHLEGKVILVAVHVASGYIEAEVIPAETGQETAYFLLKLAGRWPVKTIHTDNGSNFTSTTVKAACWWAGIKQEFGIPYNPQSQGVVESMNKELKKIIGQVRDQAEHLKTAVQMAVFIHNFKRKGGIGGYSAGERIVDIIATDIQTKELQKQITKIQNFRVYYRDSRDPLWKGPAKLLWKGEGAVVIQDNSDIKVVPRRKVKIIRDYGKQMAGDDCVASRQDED

What is called pIC50 is −log10 of the IC50, conventionally taken in molar units. For the compound `O=C(C=Cc1ccccc1)CC(=O)C=Cc1ccccc1` [5-Hydroxy-1,7-diphenylhepta-1,4,6-trien-3-one], the negative logarithm of the IC50 (pIC50) was 4.00.

On to `COc1ccc(C=CC(=O)CC(=O)C=Cc2ccc(OC)c(OC)c2)cc1OC` [(1E,4Z,6E)-1,7-bis(3,4-dimethoxyphenyl)-5-hydroxyhepta-1,4,6-trien-3-one], for which the negative-log IC50 (pIC50) is 4.00.
